# PMC7501296, “Rapid and direct control of target protein levels with VHL-recruiting dTAG molecules” (Nature Communications, 2020)
# Values joined by “and” are separate entries in the source; they are usually repeats but may differ in a detail not shown here. Equal values may be shown once.
# Tests used:
# [1] = system: EWS502 FKBP12^F36V-EWS/FLI; EWS/FLI^−/− cells; test: Synergy assessment: antiproliferation of EWS502 FKBP12F36V-EWS/FLI; EWS/FLI-/- cells co-treated with dTAGV-1 and dBET6, 72 h; type: cell-based
# Description: Cell viability was assayed in 2D-adherent or ultra-low adherent 3D-spheroids using CellTiter-Glo (Promega)[6],[15]. Luminescence was measured on an Envision 2104 plate reader (PerkinElmer) and Fluostar Omega Reader (BMG Labtech) and data was analyzed using GraphPad PRISM v8. Synergy assessments were performed using CellTiter-Glo (Promega) with the following modifications to the protocol described in the ref. [34]. In brief, EWS502 cells were plated at 1000 cells per well in 50 µL of appropriate media in 384-well white culture plates (Corning) allowed to adhere overnight, and 100 nL of compounds were added using a Janus Workstation pin tool (PerkinElmer) for 72 h. Cell viability was measured by addition of 10 µL of CellTiter-glo (Promega), followed by incubation for 15 minutes at room temperature. Luminescence was measured on an Envision 2104 plate reader (PerkinElmer) and data was analyzed using GraphPad PRISM v8.
# luciferase-FKBP12^F36V = target: T1, luciferase-FKBP12^F36V (Homo sapiens, UniProt P62942, F37V); test: Pharmacodynamic evaluation: bioluminescence of MV4;11 luc-FKBP12F36V cells in mice; type: in vivo, mice (NSG); parameters: Total flux for each mouse: unit not given here; settings: for Total flux for each mouse: single mice
# T1 construct: luciferase (fusion partner); expressed in transfected cells; host or cells: MV4;11 cells transplanted into NSG mice
# T1 sequence (P62942 2-108 F37V limits assumed): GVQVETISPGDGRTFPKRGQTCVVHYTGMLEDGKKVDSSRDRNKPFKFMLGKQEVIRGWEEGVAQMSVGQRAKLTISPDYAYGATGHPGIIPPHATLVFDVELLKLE
# Source text: For IP injections, dTAG-13 and dTAG^V-1 were formulated by dissolving into DMSO and then diluting with 20% solutol (Sigma): 0.9% sterile saline (Moltox) (w:v) with the final formulation containing 5% DMSO. […] Formulations were stable at room temperature for 7 days. For IV injections, dTAG-13 and dTAG^V-1 were formulated by dissolving into DMSO and then diluting with 5% solutol (Sigma): 0.9% sterile saline (Moltox) (w:v) with the final formulation containing 5% DMSO.
# All procedures for PD studies were compliant with ethical regulations for animal testing and research, and were approved by and performed in accordance with standards of the IACUC at Dana–Farber Cancer Institute. Housing conditions for mice at Dana–Farber Cancer Institute were as follows: lights on = 6 AM, lights off = 6 PM, average ambient temperature = 72 °F, and average humidity = 35–55%. Evaluation of degradation of luciferase in vivo was performed using MV4;11 luc-FKBP12^F36V cells and bioluminescent measurements[6],[48]. In brief, 250,000 viable MV4;11 luc-FKBP12^F36V cells were transplanted by tail-vein injection in 8-week-old immunocompromised female mice (NOD.Cg-Prkdc^scidIl2rg^tm1Wjl/SzJ, NSG; Jackson Laboratory, #005557). Bioluminescent measurements were performed following IP injection of 75 mg kg^−1 D-Luciferin (Promega). Mice were then anesthetized with 2−3% isoflurane, imaged on an IVIS Spectrum (Caliper Life Sciences), and total body bioluminescence was determined using a standardized region of interest. Two and seven days after tail-vein injection, bioluminescent measurements were performed to confirm engraftment. […] For treatments, compounds were formulated as described above, administered via IP injection and bioluminescent measurements were performed daily as described in Fig. 2d, beginning 8 days after tail-vein injection.
smiles,measurement,setting,value
Cc1sc2c(c1C)C(c1ccc(Cl)cc1)=N[C@@H](CC(=O)NCCCCCCCCNC(=O)COc1cccc3c1C(=O)N(C1CCC(=O)NC1=O)C3=O)c1nnc(C)n1-2 (stereo partly shown) [dBET6],Average DMSO-normalized ratio used for CI calculation,[1]; 1 nM dBET6 + 19.5 nM dTAGV-1,0.9811
same,Average DMSO-normalized ratio used for CI calculation,[1]; 1 nM dBET6 + 78 nM dTAGV-1,1.134
same,Average DMSO-normalized ratio used for CI calculation,[1]; 1 nM dBET6 + 312.5 nM dTAGV-1,1.111
same,Average DMSO-normalized ratio used for CI calculation,[1]; 1 nM dBET6 + 1250 nM dTAGV-1,0.8948
same,Average DMSO-normalized ratio used for CI calculation,[1]; 1 nM dBET6 + 5000 nM dTAGV-1,0.8015
same,Average DMSO-normalized ratio used for CI calculation,[1]; 1 nM dBET6 alone,0.8411
same,Average DMSO-normalized ratio used for CI calculation,[1]; 4 nM dBET6 + 19.5 nM dTAGV-1,0.9809
same,Average DMSO-normalized ratio used for CI calculation,[1]; 4 nM dBET6 + 78 nM dTAGV-1,1.057
same,Average DMSO-normalized ratio used for CI calculation,[1]; 4 nM dBET6 + 312.5 nM dTAGV-1,1.0595
same,Average DMSO-normalized ratio used for CI calculation,[1]; 4 nM dBET6 + 1250 nM dTAGV-1,0.7491
same,Average DMSO-normalized ratio used for CI calculation,[1]; 4 nM dBET6 + 5000 nM dTAGV-1,0.4793
same,Average DMSO-normalized ratio used for CI calculation,[1]; 4 nM dBET6 alone,0.8957
same,Average DMSO-normalized ratio used for CI calculation,[1]; 15.6 nM dBET6 + 19.5 nM dTAGV-1,0.798
same,Average DMSO-normalized ratio used for CI calculation,[1]; 15.6 nM dBET6 + 78 nM dTAGV-1,0.8317
same,Average DMSO-normalized ratio used for CI calculation,[1]; 15.6 nM dBET6 + 312.5 nM dTAGV-1,0.7228
same,Average DMSO-normalized ratio used for CI calculation,[1]; 15.6 nM dBET6 + 1250 nM dTAGV-1,0.4425
same,Average DMSO-normalized ratio used for CI calculation,[1]; 15.6 nM dBET6 + 5000 nM dTAGV-1,0.279
same,Average DMSO-normalized ratio used for CI calculation,[1]; 15.6 nM dBET6 alone,0.7797
same,Average DMSO-normalized ratio used for CI calculation,[1]; 62.5 nM dBET6 + 19.5 nM dTAGV-1,0.5057
same,Average DMSO-normalized ratio used for CI calculation,[1]; 62.5 nM dBET6 + 78 nM dTAGV-1,0.5414
same,Average DMSO-normalized ratio used for CI calculation,[1]; 62.5 nM dBET6 + 312.5 nM dTAGV-1,0.4908
same,Average DMSO-normalized ratio used for CI calculation,[1]; 62.5 nM dBET6 + 1250 nM dTAGV-1,0.3106
same,Average DMSO-normalized ratio used for CI calculation,[1]; 62.5 nM dBET6 + 5000 nM dTAGV-1,0.2615
same,Average DMSO-normalized ratio used for CI calculation,[1]; 62.5 nM dBET6 alone,0.5245
same,Average DMSO-normalized ratio used for CI calculation,[1]; 250 nM dBET6 + 19.5 nM dTAGV-1,0.3576
same,Average DMSO-normalized ratio used for CI calculation,[1]; 250 nM dBET6 + 78 nM dTAGV-1,0.3678
same,Average DMSO-normalized ratio used for CI calculation,[1]; 250 nM dBET6 + 312.5 nM dTAGV-1,0.3326
same,Average DMSO-normalized ratio used for CI calculation,[1]; 250 nM dBET6 + 1250 nM dTAGV-1,0.2968
same,Average DMSO-normalized ratio used for CI calculation,[1]; 250 nM dBET6 + 5000 nM dTAGV-1,0.2503
same,Average DMSO-normalized ratio used for CI calculation,[1]; 250 nM dBET6 alone,0.3398
same,"DMSO-normalized antiproliferation, Mean",[1]; co-treatment 19.5 nM dTAGV-1 (log10[M] -7.70927) + 1 nM dBET6 (log10[M] -9.0103),98.11
same,"DMSO-normalized antiproliferation, Mean",[1]; co-treatment 19.5 nM dTAGV-1 (log10[M] -7.70927) + 4 nM dBET6 (log10[M] -8.40824),98.09
same,"DMSO-normalized antiproliferation, Mean",[1]; co-treatment 19.5 nM dTAGV-1 (log10[M] -7.70927) + 15.6 nM dBET6 (log10[M] -7.80618),79.8
same,"DMSO-normalized antiproliferation, Mean",[1]; co-treatment 19.5 nM dTAGV-1 (log10[M] -7.70927) + 62.5 nM dBET6 (log10[M] -7.20412),50.57
same,"DMSO-normalized antiproliferation, Mean",[1]; co-treatment 19.5 nM dTAGV-1 (log10[M] -7.70927) + 250 nM dBET6 (log10[M] -6.60206),35.76
same,"DMSO-normalized antiproliferation, Mean",[1]; co-treatment 78 nM dTAGV-1 (log10[M] -7.10721) + 1 nM dBET6 (log10[M] -9.0103),113.36
same,"DMSO-normalized antiproliferation, Mean",[1]; co-treatment 78 nM dTAGV-1 (log10[M] -7.10721) + 4 nM dBET6 (log10[M] -8.40824),105.67
same,"DMSO-normalized antiproliferation, Mean",[1]; co-treatment 78 nM dTAGV-1 (log10[M] -7.10721) + 15.6 nM dBET6 (log10[M] -7.80618),83.17
same,"DMSO-normalized antiproliferation, Mean",[1]; co-treatment 78 nM dTAGV-1 (log10[M] -7.10721) + 62.5 nM dBET6 (log10[M] -7.20412),54.14
same,"DMSO-normalized antiproliferation, Mean",[1]; co-treatment 78 nM dTAGV-1 (log10[M] -7.10721) + 250 nM dBET6 (log10[M] -6.60206),36.78
same,"DMSO-normalized antiproliferation, Mean",[1]; co-treatment 312.5 nM dTAGV-1 (log10[M] -6.50515) + 1 nM dBET6 (log10[M] -9.0103),111.14
same,"DMSO-normalized antiproliferation, Mean",[1]; co-treatment 312.5 nM dTAGV-1 (log10[M] -6.50515) + 4 nM dBET6 (log10[M] -8.40824),105.95
same,"DMSO-normalized antiproliferation, Mean",[1]; co-treatment 312.5 nM dTAGV-1 (log10[M] -6.50515) + 15.6 nM dBET6 (log10[M] -7.80618),72.28
same,"DMSO-normalized antiproliferation, Mean",[1]; co-treatment 312.5 nM dTAGV-1 (log10[M] -6.50515) + 62.5 nM dBET6 (log10[M] -7.20412),49.08
same,"DMSO-normalized antiproliferation, Mean",[1]; co-treatment 312.5 nM dTAGV-1 (log10[M] -6.50515) + 250 nM dBET6 (log10[M] -6.60206),33.26
same,"DMSO-normalized antiproliferation, Mean",[1]; co-treatment 1250 nM dTAGV-1 (log10[M] -5.90309) + 1 nM dBET6 (log10[M] -9.0103),89.48
same,"DMSO-normalized antiproliferation, Mean",[1]; co-treatment 1250 nM dTAGV-1 (log10[M] -5.90309) + 4 nM dBET6 (log10[M] -8.40824),74.91
same,"DMSO-normalized antiproliferation, Mean",[1]; co-treatment 1250 nM dTAGV-1 (log10[M] -5.90309) + 15.6 nM dBET6 (log10[M] -7.80618),44.25
same,"DMSO-normalized antiproliferation, Mean",[1]; co-treatment 1250 nM dTAGV-1 (log10[M] -5.90309) + 62.5 nM dBET6 (log10[M] -7.20412),31.06
same,"DMSO-normalized antiproliferation, Mean",[1]; co-treatment 1250 nM dTAGV-1 (log10[M] -5.90309) + 250 nM dBET6 (log10[M] -6.60206),29.68
same,"DMSO-normalized antiproliferation, Mean",[1]; co-treatment 5000 nM dTAGV-1 (log10[M] -5.30103) + 1 nM dBET6 (log10[M] -9.0103),80.15
same,"DMSO-normalized antiproliferation, Mean",[1]; co-treatment 5000 nM dTAGV-1 (log10[M] -5.30103) + 4 nM dBET6 (log10[M] -8.40824),47.93
same,"DMSO-normalized antiproliferation, Mean",[1]; co-treatment 5000 nM dTAGV-1 (log10[M] -5.30103) + 15.6 nM dBET6 (log10[M] -7.80618),27.9
same,"DMSO-normalized antiproliferation, Mean",[1]; co-treatment 5000 nM dTAGV-1 (log10[M] -5.30103) + 62.5 nM dBET6 (log10[M] -7.20412),26.15
same,"DMSO-normalized antiproliferation, Mean",[1]; co-treatment 5000 nM dTAGV-1 (log10[M] -5.30103) + 250 nM dBET6 (log10[M] -6.60206),25.03
same,Synergy with VHL-mediated EWS/FLI degradation (dTAGV-1),[1]; combination index,synergized strongly
same,"DMSO-normalized antiproliferation, Mean","[1]; dBET6 log10[M] -6.60206, with DMSO (no dTAGV-1)",33.98
same,"DMSO-normalized antiproliferation, Mean","[1]; dBET6 log10[M] -7.20412, with DMSO (no dTAGV-1)",52.45
same,"DMSO-normalized antiproliferation, Mean","[1]; dBET6 log10[M] -7.80618, with DMSO (no dTAGV-1)",77.97
same,"DMSO-normalized antiproliferation, Mean","[1]; dBET6 log10[M] -8.40824, with DMSO (no dTAGV-1)",89.57
same,"DMSO-normalized antiproliferation, Mean","[1]; dBET6 log10[M] -9.0103, with DMSO (no dTAGV-1)",84.11
CC[C@H](C(=O)N1CCCC[C@H]1C(=O)O[C@H](CCc1ccc(OC)c(OC)c1)c1ccccc1OCC(=O)NCCCCCCOc1cccc2c1C(=O)N(C1CCC(=O)NC1=O)C2=O)c1cc(OC)c(OC)c(OC)c1 (stereo partly shown) [dTAG-13],Bioluminescent signal 4 h after each of the three administrations,luciferase-FKBP12^F36V; 35 mg kg^−1 IP,Consistent loss of bioluminescent signal
same,Total flux for each mouse,"luciferase-FKBP12^F36V; Baseline (day 0, before treatment), MV4;11 luc-FKBP12F36V",4289000 and 889100 and 3230000 and 316100 and 985400
same,Total flux for each mouse,"luciferase-FKBP12^F36V; No treatment (day 4), 28 h after third and final treatment",49160000 and 34070000 and 76150000 and 45320000
same,Total flux for each mouse,"luciferase-FKBP12^F36V; Treatment #1 (day 1), 4 h after 35 mg kg^−1 IP",6613000 and 7583000 and 6309000 and 11170000 and 4709000
same,Total flux for each mouse,"luciferase-FKBP12^F36V; Treatment #2 (day 2), 4 h after 35 mg kg^−1 IP",5587000 and 3752000 and 2682000 and 8076000 and 3987000
same,Total flux for each mouse,"luciferase-FKBP12^F36V; Treatment #3 (day 3), 4 h after 35 mg kg^−1 IP",7807000 and 6324000 and 1630000 and 11780000 and 6875000
